Columns and labels:
5-HT2A receptor = biological target: T1, 5-HT2A receptor (Homo sapiens, UniProt P28223); assay: Radioligand binding assay for 5-HT2A receptor ([3H]-ketanserin competitive binding); details: human cortex or recombinant 5-HT2A receptor expressed in CHO-K1 cells, read-out: binding affinity to 5-HT2A serotonin receptor expressed as IC50 value
T1 construct: expressed in transfected cells; host or cells: CHO-K1 (or COS-7) cells; alternatively human cortex tissue
Protocol: (§1) The effect of the compounds of the present invention on the neurochemical steady state was determined by in vitro investigations such as a radionuclide-marked radioligand binding assay for 5-HT2A (Bonhaus D. W. Br. J. Pharmacol. 1995, 115:622; Saucier C. J. Neurochem. 1997, 68:1998) and 5-HT2C receptors (Wolf W. A. J. Neurochem. 1997, 69:1449), in vitro binding assay for σ1 receptor (Thomson W. and Donn R. Arthritis Res. 2002, 4: 302-306) and by in vivo investigations in a tail suspension test (Vogel H. G. and Vogel W. H. Drug Discovery and Evaluation Pharmacological Assays, Springer 1997, 304), in amphethamine-induced hyperlocomotion in mice (Millan M. J. et al, 1998 J Pharmacol. Exp. 7her. 287: 167-186), in a forced swim test in mice (Porsolt R. D. et al. Arch. Int. Pharmacodyn. 1977, 229:327-336), in meta-chlorophenyl piperazine (m-CPP) test on rats (Drug Dev. Res. 1989, 18:119-144), and in apomorphine, tryptamine and norepinephrine (ATN) test in rats (Arch. Int. Pharmacodyn. 1977, 227:238-253). […]
(§2) During incubation the radioligand bound to the receptor. When a binding balance was achieved, the receptors to which the radioligand was bound were separated from those to which said ligand was not bound, and the radioactivity of the receptor/radioligand complex was measured. […]

5-HT2C receptor = biological target: T2, 5-HT2C receptor (Homo sapiens, UniProt P28335); assay: Radioligand binding assay for 5-HT2C receptor ([3H]-mesulergine competitive binding); details: choroid plexus or recombinant 5-HT2C receptor expressed in CHO-K1 cells, read-out: binding affinity to 5-HT2C serotonin receptor expressed as IC50 value
T2 construct: expressed in transfected cells; host or cells: CHO-K1 (or COS-7) cells; alternatively choroid plexus tissue
T2 sequence (P28335 33-458): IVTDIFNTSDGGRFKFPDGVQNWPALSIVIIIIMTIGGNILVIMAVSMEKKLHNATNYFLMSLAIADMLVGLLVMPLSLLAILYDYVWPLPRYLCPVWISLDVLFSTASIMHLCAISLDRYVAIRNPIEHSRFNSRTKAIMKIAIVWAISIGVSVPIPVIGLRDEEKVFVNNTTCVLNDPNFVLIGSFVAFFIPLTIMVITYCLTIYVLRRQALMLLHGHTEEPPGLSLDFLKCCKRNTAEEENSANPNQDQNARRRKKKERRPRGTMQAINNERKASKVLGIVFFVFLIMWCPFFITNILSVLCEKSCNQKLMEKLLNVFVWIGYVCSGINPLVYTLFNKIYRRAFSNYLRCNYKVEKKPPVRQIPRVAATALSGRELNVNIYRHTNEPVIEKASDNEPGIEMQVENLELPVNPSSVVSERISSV
Protocol: as §1, §2

T1 sequence (P28223 whole entry): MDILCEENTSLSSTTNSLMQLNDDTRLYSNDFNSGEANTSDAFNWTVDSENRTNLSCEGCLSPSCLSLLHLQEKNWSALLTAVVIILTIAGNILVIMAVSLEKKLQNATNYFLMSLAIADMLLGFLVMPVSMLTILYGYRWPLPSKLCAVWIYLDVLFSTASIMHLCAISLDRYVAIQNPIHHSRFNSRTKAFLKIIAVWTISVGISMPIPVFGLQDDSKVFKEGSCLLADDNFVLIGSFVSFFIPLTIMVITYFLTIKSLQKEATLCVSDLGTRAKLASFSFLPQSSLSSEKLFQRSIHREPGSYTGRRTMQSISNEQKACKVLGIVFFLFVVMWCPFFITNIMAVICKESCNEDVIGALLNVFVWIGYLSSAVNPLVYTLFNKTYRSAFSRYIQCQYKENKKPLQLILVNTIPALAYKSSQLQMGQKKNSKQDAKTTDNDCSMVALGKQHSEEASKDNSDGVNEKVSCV

With CN(C)CCCOCc1nc2c(s1)-c1ccccc1Oc1ccc(Cl)cc1-2 [[3-(5-chloro-8-oxa-1-thia-3-aza-dibenzo[e,h]azulen-2-ylmethoxy)-propyl]-dimethyl-amine] as the compound, how does the IC50 (5-HT2A receptor) read?
The IC50 was < 200 nM.

What about the IC50 (5-HT2C receptor) of the same compound?
Its IC50 is < 200 nM.

From patent US20070078123A1, “1-Thia-3-aza-dibenzo[e,h]azulenes for the treatment of central nervous system diseases and disorders” (PILVA-ISTRAZIVACKI INSTITUT D.O.O., priority 2003, published 2007)
